In article PMC4441817 (Bioorganic & medicinal chemistry letters, 2012):

Key:
[1] = test system: GGTase II; details: cited from earlier work
[2] = cited from earlier work
[3] = test system: human myeloma RPMI-8226 cell line; assay: cells; details: RPMI-8226, 48 h, read-out: MTT IC50
[4] = test system: human myeloma RPMI-8226 cell line; details: RPMI-8226 cells, 48 hr incubation
[5] = test system: protein farnesylation or geranylgeranylation; assay: Cellular assays of protein farnesylation or geranylgeranylation; format: cell-based; details: data not shown
[6] = target: T1, geranylgeranyl transferase II (GGTase II) (Homo sapiens, UniProt P53611+Q92696); format: biochemical; details: recombinant enzyme
T1 sequence (Q92696 1-567): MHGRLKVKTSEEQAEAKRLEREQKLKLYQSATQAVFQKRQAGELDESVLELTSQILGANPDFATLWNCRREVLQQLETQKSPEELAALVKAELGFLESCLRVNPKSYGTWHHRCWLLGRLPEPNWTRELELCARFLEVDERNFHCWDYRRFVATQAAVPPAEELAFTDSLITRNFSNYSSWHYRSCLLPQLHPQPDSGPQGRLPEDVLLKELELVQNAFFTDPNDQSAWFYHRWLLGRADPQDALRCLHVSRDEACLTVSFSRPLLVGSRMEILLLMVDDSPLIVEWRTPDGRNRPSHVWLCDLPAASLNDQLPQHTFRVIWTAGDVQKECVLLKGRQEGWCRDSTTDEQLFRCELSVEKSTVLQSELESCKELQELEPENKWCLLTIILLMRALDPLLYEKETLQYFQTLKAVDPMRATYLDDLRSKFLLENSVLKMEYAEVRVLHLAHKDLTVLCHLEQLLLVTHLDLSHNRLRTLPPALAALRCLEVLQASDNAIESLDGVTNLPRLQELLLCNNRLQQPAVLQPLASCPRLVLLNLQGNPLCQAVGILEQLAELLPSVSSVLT
T1 sequence (P53611 1-331): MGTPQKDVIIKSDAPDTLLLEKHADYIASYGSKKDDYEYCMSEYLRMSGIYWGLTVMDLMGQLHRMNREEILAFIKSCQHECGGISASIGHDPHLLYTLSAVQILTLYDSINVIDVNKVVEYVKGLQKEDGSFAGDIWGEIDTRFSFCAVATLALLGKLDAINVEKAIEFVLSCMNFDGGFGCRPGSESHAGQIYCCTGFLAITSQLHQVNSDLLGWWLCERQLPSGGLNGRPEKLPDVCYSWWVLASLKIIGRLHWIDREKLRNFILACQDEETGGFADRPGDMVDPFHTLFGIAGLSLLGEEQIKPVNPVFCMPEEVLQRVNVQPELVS

## O=C(O)C(O)(Cc1cnc2ccccn12)P(=O)(O)O (single isomer, unassigned; (+)) [(+)-3-IPEHPC]
[1]
  potency relative to 3-PEHPC: more potent than 3-PEHPC
  type of inhibition with respect to GGPP: mixed-type inhibitor
  type of inhibition with respect to Rab: uncompetitive inhibitor

## O=C(O)C(O)(Cc1cccnc1)P(=O)(O)O (stereo not drawn) [Compound 3-PEHPC]
[2]
  concentrations required to observe cellular effects: millimolar concentrations are required
[1]
  selectivity for GGTase II (in words): good selectivity for GGTase II

## O=P(O)(O)C(Cc1cn(Cc2ccccc2)nn1)P(=O)(O)O [Compound 11a]
[3]
  IC50: > 1000 µM

## O=P([O-])([O-])C(Cc1cn(Cc2ccc3ccccc3c2)nn1)P(=O)([O-])[O-].[Na+].[Na+].[Na+].[Na+] [Compound 11b]
[4]
  cytotoxic potency in the MTT assay (in words): most potent
[5]
  effect on protein farnesylation or geranylgeranylation: does not affect protein farnesylation or geranylgeranylation
[3]
  IC50: 200 µM

## CC(C)=CCCC(C)=CCn1cc(CC(P(=O)([O-])[O-])P(=O)([O-])[O-])nn1.[Na+].[Na+].[Na+].[Na+] [Compound 11c]
[6]
  activity as a GGTase II inhibitor (in words): no activity
[3]
  IC50: > 1000 µM

## CC(C)=CCC/C(C)=C/CCC(C)=CCn1cc(CC(P(=O)([O-])[O-])P(=O)([O-])[O-])nn1.[Na+].[Na+].[Na+].[Na+] [Compound 11d]
[6]
  activity as a GGTase II inhibitor (in words): modest activity
[3]
  IC50: 900 µM

## CC(C)=CCC/C(C)=C/CC/C(C)=C/CCC(C)=CCn1cc(CC(P(=O)([O-])[O-])P(=O)([O-])[O-])nn1.[Na+].[Na+].[Na+].[Na+] [Compound 11e]
[6]
  activity as a GGTase II inhibitor (in words): most active compound
[3]
  IC50: 1000 µM
